Measured values reported in patent US11459306B2, “Compounds, compositions, and methods for treating T-cell acute lymphoblastic leukemia” (The Trustees of Columbia University in the City of New York, priority 2017, dated 2022).
pKd: −log10 of the molar value.

Assays:
[1] = tested on: mouse PTEN null/NOTCH activated T-ALL cell line; test: Gene set enrichment analysis of murine T-ALL disease signature after drug treatment; format: cell-based; settings: GSEA of T-ALL disease signature
Experimental: This was also accomplished by generating gene expression signatures to assess the effects of drug treatment. Global gene expression profiles were obtained in triplicate using a mouse PTEN null/NOTCH activated T-ALL cell line driven by over expression of the transcription factor LMO2. […] Tumor cells were cultured in the presence of CAL-130 (2.5 μM) or the gamma-secretase inhibitor (GSI) Compound E (1 μM). Compound E blocks the activity of NOTCH1, which is also believed to support T-ALL tumor formation, proliferation, and survival. Drug treated cells were harvested at time points known to affect the expression of the proto-oncogene cMyc (12 hours and 48 hours, respectively), a master regulator of cell growth, metabolism and survival. A Venn diagram was created to illustrate the overlap in genes altered by either PI3Kγ/δ blockade (red circle) or GSI (green circle) using a false discovery rate (FDR) of 0.0005 as cut off (FIG. 1A). Of note, ten-fold more genes were affected following PI3Kγ/δ blockade, including the majority (˜62%) of genes altered by GSI monotherapy, a highly significant finding (Fisher's exact test, P<2.2×10^−16).
A murine T-ALL disease signature was further defined by ranking all genes based on their differential expression in T-ALL samples compared to wild type murine thymocytes. […]

PIK3CA (PI3Kα) = target: T1, PIK3CA (PI3Kα) (Homo sapiens, UniProt P42336); test: KINOMEscan competition binding assay (DiscoverX); settings: DiscoveRx gene symbol PIK3CA (PI3Kα)
T1 construct: purchased DiscoverX (KINOMEscan); host or cells: E. coli BL21-derived host (T7 phage) or HEK-293
Experimental: (§1) The compounds were tested using KINOMEscan™ (DiscoverX), which is based on a competition binding assay that quantitatively measures the ability of a compound to compete with an immobilized, active-site directed ligand. The assay is performed by combining three components: DNA-tagged kinase; immobilized ligand; and a test compound. The ability of the test compound to compete with the immobilized ligand is measured via quantitative PCR of the DNA tag.
(§2) For most assays, kinase-tagged T7 phage strains were prepared in an E. coli host derived from the BL21 strain. E. coli were grown to log-phase and infected with T7 phage and incubated with shaking at 32° C. until lysis. The lysates were centrifuged and filtered to remove cell debris. The remaining kinases were produced in HEK-293 cells and subsequently tagged with DNA for qPCR detection. Streptavidin-coated magnetic beads were treated with biotinylated small molecule ligands for 30 minutes at room temperature to generate affinity resins for kinase assays. The liganded beads were blocked with excess biotin and washed with blocking buffer (SeaBlock (Pierce), 1% BSA, 0.05% Tween 20, 1 mM DTT) to remove unbound ligand and to reduce non-specific binding. Binding reactions were assembled by combining kinases, liganded affinity beads, and test compounds in 1× binding buffer (20% SeaBlock, 0.17×PBS, 0.05% Tween 20, 6 mM DTT). Test compounds were prepared as 111× stocks in 100% DMSO. Kds were determined using an 11-point 3-fold compound dilution series with three DMSO control points. All compounds for Kd measurements are distributed by acoustic transfer (non-contact dispensing) in 100% DMSO. The compounds were then diluted directly into the assays such that the final concentration of DMSO was 0.9%. All reactions performed in polypropylene 384-well plate. Each was a final volume of 0.02 ml. The assay plates were incubated at room temperature with shaking for 1 hour and the affinity beads were washed with wash buffer (1×PBS, 0.05% Tween 20). The beads were then re-suspended in elution buffer (1×PBS, 0.05% Tween 20, 0.5 μM non-biotinylated affinity ligand) and incubated at room temperature with shaking for 30 minutes. The kinase concentration in the eluates was measured by qPCR.
(§3) An 11-point 3-fold serial dilution of each test compound was prepared in 100% DMSO at 100× final test concentration and subsequently diluted to 1× in the assay (final DMSO concentration=1%). Most Kds were determined using a compound top concentration=30,000 nM. If the initial Kd determined was <0.5 nM (the lowest concentration tested), the measurement was repeated with a serial dilution starting at a lower top concentration.
(§4) Binding constants (Kds) were calculated with a standard dose-response curve using the Hill equation: […]
(§5) The Hill Slope was set to −1. Curves were fitted using a non-linear least square fit with the Levenberg-Marquardt algorithm.

PIK3CD = target: T2, PIK3CD (Homo sapiens, UniProt O00329); test: KINOMEscan competition binding assay (DiscoverX); settings: DiscoveRx gene symbol PIK3CD (b251 prints: PI3Kγ)
T2 construct: purchased DiscoverX (KINOMEscan); host or cells: E. coli BL21-derived host (T7 phage) or HEK-293
T2 sequence (O00329 1-1044): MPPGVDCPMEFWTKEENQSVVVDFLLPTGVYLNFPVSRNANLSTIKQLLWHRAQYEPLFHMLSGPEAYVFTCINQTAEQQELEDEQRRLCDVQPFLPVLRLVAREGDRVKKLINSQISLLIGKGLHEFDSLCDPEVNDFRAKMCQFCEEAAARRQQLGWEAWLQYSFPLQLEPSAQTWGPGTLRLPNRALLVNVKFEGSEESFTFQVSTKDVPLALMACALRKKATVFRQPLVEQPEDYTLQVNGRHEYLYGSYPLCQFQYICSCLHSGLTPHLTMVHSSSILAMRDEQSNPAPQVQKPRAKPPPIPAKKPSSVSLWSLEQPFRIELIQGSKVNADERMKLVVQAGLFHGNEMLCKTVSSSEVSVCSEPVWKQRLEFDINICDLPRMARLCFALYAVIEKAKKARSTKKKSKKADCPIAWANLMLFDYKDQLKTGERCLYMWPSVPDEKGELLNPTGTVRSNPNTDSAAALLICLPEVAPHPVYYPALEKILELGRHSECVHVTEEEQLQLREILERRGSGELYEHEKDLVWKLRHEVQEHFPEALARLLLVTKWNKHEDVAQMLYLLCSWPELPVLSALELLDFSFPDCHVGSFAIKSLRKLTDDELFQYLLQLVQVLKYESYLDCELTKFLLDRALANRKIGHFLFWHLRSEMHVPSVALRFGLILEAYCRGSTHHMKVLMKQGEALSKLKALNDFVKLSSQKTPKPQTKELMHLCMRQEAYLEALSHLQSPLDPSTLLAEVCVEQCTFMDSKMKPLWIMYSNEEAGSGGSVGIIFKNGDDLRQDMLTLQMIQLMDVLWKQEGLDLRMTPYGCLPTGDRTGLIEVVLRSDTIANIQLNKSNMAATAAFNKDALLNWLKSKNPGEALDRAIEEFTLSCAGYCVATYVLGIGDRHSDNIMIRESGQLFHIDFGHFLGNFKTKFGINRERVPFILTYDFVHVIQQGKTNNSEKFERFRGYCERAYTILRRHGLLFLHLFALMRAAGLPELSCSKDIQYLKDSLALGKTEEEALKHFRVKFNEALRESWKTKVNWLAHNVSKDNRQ
Experimental: as §1, §2, §3, §4, §5

PIK3CG = target: T3, PIK3CG (Homo sapiens, UniProt P48736); test: KINOMEscan competition binding assay (DiscoverX); settings: DiscoveRx gene symbol PIK3CG (b251 prints: PI3Kδ)
T3 construct: purchased DiscoverX (KINOMEscan); host or cells: E. coli BL21-derived host (T7 phage) or HEK-293
Experimental: as §1, §2, §3, §4, §5

PIK3CB (PI3Kβ) = target: T4, PIK3CB (PI3Kβ) (Homo sapiens, UniProt P42338); test: KINOMEscan competition binding assay (DiscoverX); settings: DiscoveRx gene symbol PIK3CB (PI3Kβ)
T4 construct: purchased DiscoverX (KINOMEscan); host or cells: E. coli BL21-derived host (T7 phage) or HEK-293
Experimental: as §1, §2, §3, §4, §5

T-ALL cell line = test: T-ALL cell viability / cell death; format: cell-based, murine
Experimental: Compounds DWL-PI3K-1, DWL-PI3K-2, DWL-PI3K-3, DWL-PI3K-4, DWL-PI3K-5, DWL-PI3K-6 and DWL-PI3K-7, and reference compounds CAL-130, tenalisib, duvelisib were evaluated for efficacy (cell viability by measuring ATP (CellTiter-Glo) or propidium iodide (PI) uptake) against a number of cancer cells, including LMO-2-007, OCI-LY-10, HH, H9, PF382 and CCRF-CEM.

[2] = tested on: murine PTEN null T-ALL cell line lacking both p110γ and p110δ catalytic domains; test: Killing of T-ALL cell line lacking p110γ and p110δ; format: cell-based; settings: selectivity control line
Text: Compounds described herein also appear to be selective for p110 catalytic domains of PI3Kγ and PI3Kδ as treatment, for example, of a T-ALL cell line lacking these two p110 isoforms results in limited cell killing.

[3] = Pharmacokinetics relative to CAL-130; format: in vivo
T-ALL = test: Tumor burden and survival of mice with T-ALL; format: in vivo
[4] = tested on: human primary T-ALL cells; test: Akt phosphorylation and pro-apoptotic pathways in human primary T-ALL cells; format: cell-based

T4 sequence (P42338 whole entry): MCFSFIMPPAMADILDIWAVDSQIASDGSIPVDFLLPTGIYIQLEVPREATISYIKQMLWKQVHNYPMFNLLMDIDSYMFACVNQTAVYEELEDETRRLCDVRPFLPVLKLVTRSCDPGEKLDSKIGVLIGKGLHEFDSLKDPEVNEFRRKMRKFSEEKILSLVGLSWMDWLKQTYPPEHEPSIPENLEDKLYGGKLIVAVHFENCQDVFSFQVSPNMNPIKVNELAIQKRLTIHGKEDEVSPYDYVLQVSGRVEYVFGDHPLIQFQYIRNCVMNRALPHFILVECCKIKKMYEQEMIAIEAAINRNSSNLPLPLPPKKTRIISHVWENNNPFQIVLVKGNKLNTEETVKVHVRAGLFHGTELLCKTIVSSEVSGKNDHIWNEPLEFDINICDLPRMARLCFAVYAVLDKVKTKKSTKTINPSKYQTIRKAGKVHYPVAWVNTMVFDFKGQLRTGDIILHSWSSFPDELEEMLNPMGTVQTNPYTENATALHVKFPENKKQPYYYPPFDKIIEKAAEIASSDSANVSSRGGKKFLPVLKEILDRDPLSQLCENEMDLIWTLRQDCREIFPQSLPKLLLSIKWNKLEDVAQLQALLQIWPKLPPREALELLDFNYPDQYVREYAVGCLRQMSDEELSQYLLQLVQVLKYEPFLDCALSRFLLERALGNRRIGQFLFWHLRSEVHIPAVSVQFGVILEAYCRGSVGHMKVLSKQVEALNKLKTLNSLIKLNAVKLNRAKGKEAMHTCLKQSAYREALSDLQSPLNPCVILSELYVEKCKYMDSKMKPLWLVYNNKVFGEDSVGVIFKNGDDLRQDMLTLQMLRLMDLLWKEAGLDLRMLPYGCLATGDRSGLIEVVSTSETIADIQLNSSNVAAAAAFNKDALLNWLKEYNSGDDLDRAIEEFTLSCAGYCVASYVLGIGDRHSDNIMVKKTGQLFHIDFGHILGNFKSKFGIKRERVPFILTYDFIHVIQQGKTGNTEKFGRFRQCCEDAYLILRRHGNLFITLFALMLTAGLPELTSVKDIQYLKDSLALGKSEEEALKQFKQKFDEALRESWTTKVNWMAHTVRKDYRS
T1 sequence (P42336 whole entry): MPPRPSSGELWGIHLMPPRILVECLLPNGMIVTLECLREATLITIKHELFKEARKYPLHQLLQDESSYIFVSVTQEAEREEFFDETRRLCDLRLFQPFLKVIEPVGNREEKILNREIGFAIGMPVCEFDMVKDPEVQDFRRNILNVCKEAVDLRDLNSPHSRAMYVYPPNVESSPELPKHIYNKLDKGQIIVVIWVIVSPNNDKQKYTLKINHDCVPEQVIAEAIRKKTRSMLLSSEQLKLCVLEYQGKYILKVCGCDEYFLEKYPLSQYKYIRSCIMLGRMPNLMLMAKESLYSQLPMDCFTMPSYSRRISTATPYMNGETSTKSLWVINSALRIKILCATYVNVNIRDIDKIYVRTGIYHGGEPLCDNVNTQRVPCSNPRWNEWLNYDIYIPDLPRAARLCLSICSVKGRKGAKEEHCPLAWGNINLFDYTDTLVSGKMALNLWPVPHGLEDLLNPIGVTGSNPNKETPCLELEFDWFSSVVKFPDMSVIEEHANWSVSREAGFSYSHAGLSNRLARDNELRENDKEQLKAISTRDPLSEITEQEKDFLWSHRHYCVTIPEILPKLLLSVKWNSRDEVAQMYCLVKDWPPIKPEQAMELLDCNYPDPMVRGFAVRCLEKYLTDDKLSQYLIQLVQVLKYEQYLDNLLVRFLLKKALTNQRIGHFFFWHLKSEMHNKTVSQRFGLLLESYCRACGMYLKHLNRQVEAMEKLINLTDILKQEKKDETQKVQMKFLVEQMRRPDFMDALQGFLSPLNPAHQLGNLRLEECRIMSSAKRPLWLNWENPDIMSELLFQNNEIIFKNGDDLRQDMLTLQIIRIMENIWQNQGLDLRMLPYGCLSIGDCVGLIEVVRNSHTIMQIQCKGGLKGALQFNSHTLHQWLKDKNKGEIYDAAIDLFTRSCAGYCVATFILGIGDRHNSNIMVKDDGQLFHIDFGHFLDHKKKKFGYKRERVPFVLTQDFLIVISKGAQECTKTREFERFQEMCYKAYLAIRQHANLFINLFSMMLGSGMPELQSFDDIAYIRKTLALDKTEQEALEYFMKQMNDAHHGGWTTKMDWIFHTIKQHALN
T3 sequence (P48736 whole entry): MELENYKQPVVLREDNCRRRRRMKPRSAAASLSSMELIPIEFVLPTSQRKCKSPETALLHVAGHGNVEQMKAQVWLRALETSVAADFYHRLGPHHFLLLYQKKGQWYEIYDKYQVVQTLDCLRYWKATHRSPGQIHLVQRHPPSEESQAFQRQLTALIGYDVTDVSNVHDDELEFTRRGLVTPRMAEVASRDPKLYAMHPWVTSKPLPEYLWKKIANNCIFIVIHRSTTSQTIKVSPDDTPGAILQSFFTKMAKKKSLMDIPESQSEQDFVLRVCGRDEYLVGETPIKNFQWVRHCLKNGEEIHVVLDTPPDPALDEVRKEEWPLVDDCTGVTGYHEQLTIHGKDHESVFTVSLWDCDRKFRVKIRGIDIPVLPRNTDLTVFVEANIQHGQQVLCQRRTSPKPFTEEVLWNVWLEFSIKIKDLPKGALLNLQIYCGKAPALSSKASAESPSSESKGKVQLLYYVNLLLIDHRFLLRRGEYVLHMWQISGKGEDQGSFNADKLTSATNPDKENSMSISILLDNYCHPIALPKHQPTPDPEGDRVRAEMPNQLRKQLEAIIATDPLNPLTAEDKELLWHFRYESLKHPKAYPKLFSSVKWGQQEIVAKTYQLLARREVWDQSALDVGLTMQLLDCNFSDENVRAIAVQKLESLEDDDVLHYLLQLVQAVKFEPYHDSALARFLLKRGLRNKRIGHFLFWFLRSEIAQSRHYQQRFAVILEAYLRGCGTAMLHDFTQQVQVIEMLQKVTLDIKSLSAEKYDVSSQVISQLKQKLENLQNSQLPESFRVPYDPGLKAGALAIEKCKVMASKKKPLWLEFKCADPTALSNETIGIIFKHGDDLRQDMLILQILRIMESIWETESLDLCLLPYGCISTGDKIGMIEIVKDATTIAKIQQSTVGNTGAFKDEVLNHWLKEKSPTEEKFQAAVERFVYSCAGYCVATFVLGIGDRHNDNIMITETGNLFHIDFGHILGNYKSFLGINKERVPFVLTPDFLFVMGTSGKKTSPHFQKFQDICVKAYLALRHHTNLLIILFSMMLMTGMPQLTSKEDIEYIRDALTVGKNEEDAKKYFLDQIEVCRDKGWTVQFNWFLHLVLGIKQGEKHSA

SMILES	pKd (PIK3CA (PI3Kα))	pKd (PIK3CD)	pKd (PIK3CG)	pKd (PIK3CB (PI3Kβ))	pharmacokinetics [3]	normalized enrichment score (NES) ([1]; 1 μM, 48 hours)	efficacy in inducing T-ALL cell death relative to CAL-130 (T-ALL cell line; cultured T-ALL cells)	amount needed relative to CAL-130 to achieve a similar reduction in tumor cell survival (T-ALL cell line)	cell killing of T-ALL cell line lacking p110γ and p110δ [2]	effect on tumor burden and survival (T-ALL)	mean survival (T-ALL; 30 mg/kg tid)	normalized enrichment score (NES) ([1]; 2.5 μM, 12 hours)	Akt phosphorylation and pro-apoptotic pathways [4]	mean survival (T-ALL; 10 mg/kg tid)
C[C@H](NC(=O)Cc1cc(F)cc(F)c1)C(=O)N[C@H]1N=C(c2ccccc2)c2ccccc2N(C)C1=O [Compound E]	–	–	–	–	–	−2.6	–	–	–	–	–	–	–	–
Cc1nc(N)nc(N[C@@H](C)c2cc3cccc(Cl)c3c(=O)n2-c2ccccc2)c1C#N [DWL-PI3K-4, (S)-2-amino-4-((1-(8-chloro-1-oxo-2-phenyl-1,2-dihydroisoquinolin-3-yl)ethyl)amino)-6-methylpyrimidine-5-carbonitrile]	8.66	10.38	10.05	9.82	better pharmacokinetics	–	greater efficacy than CAL-130	about 10 fold less	limited killing	–	–	–	–	–
C[C@H](Nc1ncnc2nc[nH]c12)c1cc2cccc(Cl)c2c(=O)n1-c1ccccc1 [IPI-145]	–	–	–	–	–	–	–	–	–	not as effective in reducing tumor burden or in prolonging overall survival	18 days	–	–	–
Cc1ccccc1-n1c([C@H](C)Nc2nc(N)nc(C)c2C#N)nc2cccc(C)c2c1=O [DWL-PI3K-2, (S)-2-amino-4-methyl-6-((1-(5-methyl-4-oxo-3-(o-tolyl)-3,4-dihydroquinazolin-2-yl)ethyl)amino)pyrimidine-5-carbonitrile]	7.28	9.21	9.21	8.37	better pharmacokinetics	–	–	about 10 fold less	–	–	–	–	–	–
Cc1ccccc1-n1c([C@H](C)Nc2nc(N)nc(N)c2C#N)nc2cccc(C)c2c1=O [DWL-PI3K-1, (S)-2,4-diamino-6-((1-(5-methyl-4-oxo-3-(o-tolyl)-3,4-dihydroquinazolin-2-yl)ethyl)amino)pyrimidine-5-carbonitrile]	7.70	9.41	9.70	9.04	better pharmacokinetics	–	–	about 10 fold less	–	–	–	–	–	–
Cc1ccccc1-n1c([C@H](C)Nc2nc(N)nc3[nH]cnc23)nc2cccc(C)c2c1=O [CAL-130]	–	–	–	–	–	–	–	–	–	significantly reduced tumor burden and prolonged survival of diseased mice	–	−5.8	abolished Akt phosphorylation and activated pro-apoptotic pathways	45 days

Continued, in another order:

pKd (PIK3CA (PI3Kα))	pKd (PIK3CD)	pKd (PIK3CG)	pKd (PIK3CB (PI3Kβ))	pharmacokinetics [3]	SMILES	normalized enrichment score (NES) ([1]; 1 μM, 48 hours)	efficacy in inducing T-ALL cell death relative to CAL-130 (T-ALL cell line; cultured T-ALL cells)	amount needed relative to CAL-130 to achieve a similar reduction in tumor cell survival (T-ALL cell line)	cell killing of T-ALL cell line lacking p110γ and p110δ [2]	effect on tumor burden and survival (T-ALL)	mean survival (T-ALL; 30 mg/kg tid)	normalized enrichment score (NES) ([1]; 2.5 μM, 12 hours)	Akt phosphorylation and pro-apoptotic pathways [4]	mean survival (T-ALL; 10 mg/kg tid)
8.00	9.96	9.57	9.34	better pharmacokinetics	C[C@H](Nc1nc(N)nc(N)c1C#N)c1cc2cccc(Cl)c2c(=O)n1-c1cccc(F)c1 [DWL-PI3K-6, (S)-2,4-diamino-6-((1-(8-chloro-2-(3-fluorophenyl)-1-oxo-1,2-dihydroisoquinolin-3-yl)ethyl)amino)pyrimidine-5-carbonitrile]	–	–	about 10 fold less	–	–	–	–	–	–
8.21	9.92	9.77	9.52	better pharmacokinetics	[2H]c1c([2H])c([2H])c(-n2c([C@H](C)Nc3nc(N)nc(N)c3C#N)cc3cccc(Cl)c3c2=O)c([2H])c1[2H] [DWL-PI3K-7, (S)-2,4-diamino-6-((1-(8-chloro-1-oxo-2-(phenyl-d5)-1,2-dihydroisoquinolin-3-yl)ethyl)amino)pyrimidine-5-carbonitrile]	–	–	about 10 fold less	limited killing effect	–	–	–	–	–
7.52	9.92	9.42	8.85	better pharmacokinetics	C[C@H](Nc1nc(N)nc(N)c1C#N)c1cc2cccc(Cl)c2c(=O)n1-c1cc(F)cc(F)c1 [DWL-PI3K-5, (S)-2,4-diamino-6-(1-(8-chloro-2-(3,5-difluorophenyl)-1-oxo-1,2-dihydroisoquinolin-3-yl)ethylamino)pyrimidine-5-carbonitrile]	–	–	about 10 fold less	–	–	–	–	–	–
